Measurements: PubChem BioAssay AID540258 (Broad Institute, 2011)
Calls of active or inactive are those of the source.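 Rule for the calls: active = fitted curve reaching 40% activation at or below the top valid dose tested; inconclusive = flat curve at 30 to 70% activation, or poor fit; inactive = the rest.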

The molecules below were run on SK-MEL-5 TRPM1 promoter luciferase reporter, 24 h (assay: activation of TRPM1 promoter luciferase in melanoma cells – SK-MEL-5 cells, cherry-pick samples, dose response (AID 540258);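 note: potency for activators that raise TRPM1 promoter luciferase signal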).
`CC(=O)N1N=C(c2ccc(C)cc2)OC1c1ccc(Br)cc1` (configuration not stated) showed an AC40 of 2830 nM. In the case of `CC(C)c1ccc(NC(=O)c2snc3ccc(Cl)cc23)cc1`, the AC40 is reported as 1110 nM. Work on `Clc1ccc(SCc2cn3ccccc3n2)cc1` yielded an AC40 of 2690 nM. `CCn1c(C(=O)OC)cc2c1ccn2-c1ccc(F)cc1` showed an AC40 of 2940 nM. With `COc1cc(OC)cc(-c2cc3cc(F)ccc3cn2)c1` the AC40 was 1710 nM. In the case of `COc1ccc2cc(-c3csc(-c4cccnc4)n3)ccc2c1`, the AC40 is reported as 2090 nM. In the case of `Cc1ccc(OC(=O)c2cccc(S(=O)(=O)N3CCCC3)c2)c(-n2nc3ccccc3n2)c1`, the AC40 is reported as 1410 nM. Molecule `Cc1cc(C)c2nc(NCc3ccccc3O)sc2c1` has an AC40 of 19000 nM. Molecule `CC(=O)c1cccc(OCc2cc(C(=O)N(C)Cc3cnccn3)no2)c1` has an AC40 of 9270 nM. In the case of `COC(=O)C1CCc2c(ccc3c2CCCC3)C1=O` (configuration not stated), the AC40 is reported as 2030 nM. Molecule `COc1cccc(C(=O)Nc2ccc(NC(=O)C3CC3)cn2)c1` has an AC40 of 3480 nM. Molecule `COc1ccc(C2Nc3ccccc3C(=O)N2c2ccc(C)cc2)cc1Cn1nnc2ccccc21` (configuration not stated) has an AC40 of 17200 nM. For `O=C(Nc1ccc(F)cc1Cl)c1ccc2c(=O)n3c(nc2c1)CCC3`, the AC40 was 3500 nM. For `Cc1ccc(NC(=O)CC(=O)c2ccccc2)cc1C`, the AC40 was 3330 nM. With `O=C(Nc1ccc(OC(F)F)c(Cl)c1)c1ccccn1` the AC40 was 461 nM. With `Cc1ccc(NC(=O)Nc2ccc3c(c2)N(C)C(=O)CS3)nc1` the AC40 was 6650 nM. For `COc1ccc(Nc2nc(N)c3ccccc3n2)c(OC)c1`, the AC40 was 2400 nM. For `Cc1ccc(N2C(=O)S/C(=C/c3cn(C)c4ccccc34)C2=O)cc1`, the AC40 was 6500 nM. With `O=c1c2c(nc3cc(-c4ccc(Br)cc4)[nH]n13)CCCC2` the AC40 was 286 nM. Work on `O=C(N/N=C/c1ccccn1)c1c[nH]c2ccccc12` yielded an AC40 of 6490 nM. For `c1csc(CSc2nc3ccccc3s2)c1`, the AC40 was 1090 nM. `O=C(O)c1cc(-c2ccc(-c3c(-c4ccc5c(c4)OCO5)noc3-c3ccsc3)cc2)nc2ccccc12` gave an AC40 of 20300 nM. With `COc1ccc(/C=C2\OC(=O)c3c(OC)cccc32)cc1OC` the AC40 was 998 nM. For `CC(C)(C)c1ccc(C(=O)NCc2ccccc2)cc1`, the AC40 was 8050 nM. With `Cc1cccc(NC(=O)c2onc3c2CCCC3)c1C` the AC40 was 1620 nM. `Cc1nc(C(C)NC(=O)CCc2nnc(CCCc3ccccc3)o2)c(C)s1` (configuration not stated) gave an AC40 of 3830 nM. For `Nc1ccc(CSc2ccc(Cl)cc2)c(Cl)c1`, the AC40 was 1980 nM. With `Cc1nc2ccc(NC(=O)Cc3c(F)cccc3Cl)cc2s1` the AC40 was 3660 nM. With `Cc1ccccc1Nc1nc(N)nc(COC(=O)c2ccccc2)n1` the AC40 was 7870 nM. With `O=C(c1cnn2ccccc12)N1CCc2ccccc21` the AC40 was 1280 nM. In the case of `COCc1nn2c(N)c(-c3ccccc3)cnc2c1-c1ccccc1`, the AC40 is reported as 2620 nM. In the case of `COC(=O)c1ccc(Nc2ncnc3sccc23)cc1`, the AC40 is reported as 7470 nM. Molecule `O=C(N/N=C/c1ccccc1C(F)(F)F)c1ccc(O)cc1` has an AC40 of 3440 nM. `CC(C)(C)c1ccc(SCCc2ccccn2)cc1` showed an AC40 of 1980 nM. In the case of `Cc1ccccc1S(=O)(=O)Oc1ccc2ccc(O)cc2c1`, the AC40 is reported as 25700 nM. `Cc1ccccc1S(=O)(=O)/N=C(/Nc1nc2ccccc2s1)c1ccccc1` was tested, and the AC40 was 31000 nM. `Clc1ccc(COn2nnc3ccccc32)c(Cl)c1` was tested, and the AC40 was 941 nM. With `CCCCN1CCc2c([nH]c3c(C)cccc23)C1=O` the AC40 was > 35000 nM (inactive). `Cc1ccc2c(CN3CCC(C)CC3)cc(=O)oc2c1C` was tested, and the AC40 was 8330 nM. Molecule `Cc1ccc(O)c(-n2nc3ccccc3n2)c1` has an AC40 of 1210 nM. Molecule `CCCC(=O)N1c2ccc(-c3csc(N)n3)cc2CC1C` (configuration not stated) has an AC40 of 1650 nM. Work on `CCCCCc1ccc(-c2ccc(OC)cc2)nc1` yielded an AC40 of 1380 nM. Molecule `COc1cccc(C2Nc3ccccc3C(=O)N2c2ccc(F)cc2)c1O` (configuration not stated) has an AC40 of 23800 nM. In the case of `Cc1ccc(-c2csc(C(C#N)=C3CCCC3)n2)cc1`, the AC40 is reported as 2840 nM. In the case of `Cc1ccc(NC(=O)N2CCc3ccccc3C2)cc1C`, the AC40 is reported as 4470 nM. Molecule `CN1CCSc2ccc(C(=O)Nc3cc(F)ccc3F)cc21` has an AC40 of 465 nM. For `COc1cccc(NC(=O)C(=O)NCCC2CCCCN2S(=O)(=O)c2cccs2)c1` (configuration not stated), the AC40 was 4240 nM.
